Data published in US20020151563A1, “Farnesyl transferase inhibitors in combination with HMG CoA reductase inhibitors for the inhibition of abnormal cell growth” (Pfizer Inc., priority 2001, published 2002).

System: NIH-3T3 tranfectant overexpressing mutant K-ras 4B
Assay: Prenylation of K-ras 4B in intact cells (anti-Pan-ras immunoblot, densitometric scanning)
Format: cell-based
Conditions: 72 hours at 37° C.; 0, 1.0, 5.0, 10.0 and 25 μm FTase inhibitor in the presence versus absence of 5,M of hydrolysed lovastatin
Protocol: The effectiveness of the FTase inhibitor 6-[(4-chloro-phenyl)-hydroxy-(3-methyl-3H-imidazol4-yl)-methyl]-4-(3-ethynyl-phenyl)-1-methyl-1H-quinolin-2-one on prenylation of K-ras 4B in intact cells is enhanced by a minimally effective dose of lovastatin. Semi-confluent monolayers of the NIH-3T3 tranfectant overexpressing mutant K-ras 4B are treated for 72 hours at 37° C. with increasing concentrations (0, 1.0 μm, 5.0 μm 10.0 μm and 25 μm) of 6-[(4-chloro-phenyl)-hydroxy-(3-methyl-3H-imidazol4-yl)-methyl]4-(3-ethynyl-phenyl)-1-methyl-1H-quinolin-2-one in the presence and absence of 5,M of hydrolysed lovastatin. […] The blots are incubated with peroxidase-conjugated secondary antibody, and the immunoblotted Ras protein are detected by enhanced chemiluminescence (Amersham Life Products, Arlington Heights, Ill.). Percent of prenylated Ras is determined by densitometric scanning using MasterScan 3.0 (Scanalytics, Billerica, Mass.). […]

## C#Cc1cccc(-c2cc(=O)n(C)c3ccc(C(O)(c4ccc(Cl)cc4)c4cncn4C)cc23)c1 (stereo not shown) [6-[(4-chloro-phenyl)-hydroxy-(3-methyl-3H-imidazol4-yl)-methyl]-4-(3-ethynyl-phenyl)-1-methyl-1H-quinolin-2-one]
  effectiveness on the inhibition of prenylation of K-ras 4B in intact cells (percent of prenylated Ras): enhanced
